Experimental data taken from PubChem BioAssay (NCI).
Values after ≈ are worked out from the molar mass of the structure shown.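 Following 48 hours of exposure in 96-well plates, responses at five concentrations were used to interpolate endpoints linearly. GI50: concentration for 50% inhibition of growth. Definition used: TGI = concentration required for complete inhibition of growth.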 Where a SMILES comes first, the peptide text is derived from it. The star is where a group is joined. Boc = CC(C)(C)OC(=O)*; OcHex = C1CCC(O*)CC1

Tests used:
Assay in all cases: inhibition of tumour cell growth, NCI panel, 48 h; in the data active = GI50 below about 0.43 µM; inactive = the rest
A549 NSCLC = test system: A549 NSCLC
NCI-H460 lung = test system: NCI-H460 lung
HT29 colon = test system: HT29 colon
HS 578T breast = test system: HS 578T breast
MOLT-4 leukemia = test system: MOLT-4 leukemia
RXF 393 renal = test system: RXF 393 renal
MALME-3M melanoma = test system: MALME-3M melanoma
OVCAR-8 ovarian = test system: OVCAR-8 ovarian
SK-OV-3 ovarian = test system: SK-OV-3 ovarian
HCT-116 colon = test system: HCT-116 colon
ACHN renal = test system: ACHN renal
MDA-MB-435 = test system: MDA-MB-435
NCI-H522 lung = test system: NCI-H522 lung
TK-10 renal = test system: TK-10 renal
SK-MEL-5 melanoma = test system: SK-MEL-5 melanoma
COLO 205 colon = test system: COLO 205 colon
SNB-19 CNS = test system: SNB-19 CNS
HOP-62 NSCLC = test system: HOP-62 NSCLC
OVCAR-4 ovarian = test system: OVCAR-4 ovarian
KM12 colon = test system: KM12 colon
OVCAR-5 ovarian = test system: OVCAR-5 ovarian
A498 renal = test system: A498 renal
PC-3 prostate = test system: PC-3 prostate
BT-549 breast = test system: BT-549 breast
K-562 leukemia = test system: K-562 leukemia
SK-MEL-2 melanoma = test system: SK-MEL-2 melanoma
MCF7 breast = test system: MCF7 breast
IGROV1 ovarian = test system: IGROV1 ovarian
OVCAR-3 ovarian = test system: OVCAR-3 ovarian
HL-60(TB) leukemia = test system: HL-60(TB) leukemia
UACC-62 melanoma = test system: UACC-62 melanoma
SF-295 CNS = test system: SF-295 CNS
SN12C renal = test system: SN12C renal
RPMI-8226 leukemia = test system: RPMI-8226 leukemia
HCT-15 colon = test system: HCT-15 colon
786-0 renal = test system: 786-0 renal
U251 CNS = test system: U251 CNS
SF-268 CNS = test system: SF-268 CNS
UO-31 renal = test system: UO-31 renal
HCC-2998 colon = test system: HCC-2998 colon
LOX IMVI melanoma = test system: LOX IMVI melanoma
NCI/ADR-RES ovarian = test system: NCI/ADR-RES ovarian
T-47D breast = test system: T-47D breast
CAKI-1 renal = test system: CAKI-1 renal
MDA-MB-231 breast = test system: MDA-MB-231 breast
SK-MEL-28 melanoma = test system: SK-MEL-28 melanoma
M14 melanoma = test system: M14 melanoma
EKVX NSCLC = test system: EKVX NSCLC
SNB-75 CNS = test system: SNB-75 CNS
SF-539 CNS = test system: SF-539 CNS
DU-145 prostate = test system: DU-145 prostate
SW-620 colon = test system: SW-620 colon
UACC-257 melanoma = test system: UACC-257 melanoma
NCI-H226 lung = test system: NCI-H226 lung
NCI-H23 lung = test system: NCI-H23 lung
HOP-92 NSCLC = test system: HOP-92 NSCLC
CCRF-CEM leukemia = test system: CCRF-CEM leukemia

COc1ccccc1Oc1nccc(-c2c(-c3ccc(F)cc3)ncn2C2CCNCC2)n1
> 19.9 µM: TGI (COLO 205 colon)
> 23 µM: TGI (HS 578T breast)
inactive: GI50 (A549 NSCLC) > 25 µM | GI50 (NCI-H460 lung) > 25 µM | GI50 (HT29 colon) 8.72 µM | GI50 (HS 578T breast) > 6.75 µM | GI50 (MOLT-4 leukemia) > 16.3 µM | GI50 (RXF 393 renal) 8.67 µM | GI50 (MALME-3M melanoma) > 25 µM | GI50 (OVCAR-8 ovarian) > 25 µM | GI50 (SK-OV-3 ovarian) > 25 µM | GI50 (HCT-116 colon) 19.6 µM | GI50 (ACHN renal) 15.4 µM | GI50 (MDA-MB-435) > 24.1 µM | GI50 (NCI-H522 lung) > 25 µM | GI50 (TK-10 renal) > 25 µM | GI50 (SK-MEL-5 melanoma) 7.2 µM | GI50 (COLO 205 colon) 7.37 µM | GI50 (SNB-19 CNS) > 25 µM | GI50 (HOP-62 NSCLC) > 25 µM | GI50 (OVCAR-4 ovarian) > 25 µM | GI50 (KM12 colon) > 25 µM | GI50 (OVCAR-5 ovarian) > 25 µM | GI50 (A498 renal) > 25 µM | GI50 (PC-3 prostate) > 20.9 µM | GI50 (BT-549 breast) > 23.6 µM | GI50 (K-562 leukemia) 8.32 µM | GI50 (SK-MEL-2 melanoma) > 25 µM | GI50 (MCF7 breast) 16 µM | GI50 (IGROV1 ovarian) > 22.6 µM | GI50 (OVCAR-3 ovarian) > 25 µM | GI50 (HL-60(TB) leukemia) > 23.3 µM | GI50 (UACC-62 melanoma) > 25 µM | GI50 (SF-295 CNS) 17.5 µM | GI50 (SN12C renal) > 25 µM | GI50 (RPMI-8226 leukemia) > 19.3 µM | GI50 (HCT-15 colon) > 25 µM | GI50 (786-0 renal) > 25 µM | GI50 (U251 CNS) > 24 µM | GI50 (SF-268 CNS) > 25 µM | GI50 (UO-31 renal) 6.86 µM | GI50 (HCC-2998 colon) 11.8 µM | GI50 (LOX IMVI melanoma) 17.6 µM | GI50 (NCI/ADR-RES ovarian) > 25 µM | GI50 (T-47D breast) > 25 µM | GI50 (CAKI-1 renal) > 23.2 µM | GI50 (MDA-MB-231 breast) 14.5 µM | GI50 (SK-MEL-28 melanoma) > 24.1 µM | GI50 (M14 melanoma) > 19.1 µM | GI50 (EKVX NSCLC) > 25 µM | GI50 (SNB-75 CNS) > 16.6 µM | GI50 (SF-539 CNS) > 25 µM | GI50 (DU-145 prostate) > 25 µM | GI50 (SW-620 colon) > 25 µM
> 25 µM: TGI (A549 NSCLC) | TGI (NCI-H460 lung) | TGI (HT29 colon) | TGI (MOLT-4 leukemia) | TGI (RXF 393 renal) | TGI (MALME-3M melanoma) | TGI (OVCAR-8 ovarian) | TGI (SK-OV-3 ovarian) | TGI (HCT-116 colon) | TGI (ACHN renal) | TGI (MDA-MB-435) | TGI (NCI-H522 lung) | TGI (TK-10 renal) | TGI (SK-MEL-5 melanoma) | TGI (SNB-19 CNS) | TGI (HOP-62 NSCLC) | TGI (OVCAR-4 ovarian) | TGI (KM12 colon) | TGI (OVCAR-5 ovarian) | TGI (A498 renal) | TGI (PC-3 prostate) | TGI (BT-549 breast) | TGI (K-562 leukemia) | TGI (SK-MEL-2 melanoma) | TGI (MCF7 breast) | TGI (IGROV1 ovarian) | TGI (OVCAR-3 ovarian) | TGI (HL-60(TB) leukemia) | TGI (UACC-62 melanoma) | TGI (SF-295 CNS) | TGI (SN12C renal) | TGI (RPMI-8226 leukemia) | TGI (HCT-15 colon) | TGI (786-0 renal) | TGI (U251 CNS) | TGI (SF-268 CNS) | TGI (UO-31 renal) | TGI (HCC-2998 colon) | TGI (LOX IMVI melanoma) | TGI (NCI/ADR-RES ovarian) | TGI (T-47D breast) | TGI (CAKI-1 renal) | TGI (MDA-MB-231 breast) | TGI (SK-MEL-28 melanoma) | TGI (M14 melanoma) | TGI (EKVX NSCLC) | TGI (SNB-75 CNS) | TGI (SF-539 CNS) | TGI (DU-145 prostate) | TGI (SW-620 colon)

CCOC(=O)C1(C/C=C\CBr)CCCC1=O (centres undefined)
31.3 µM: TGI (RXF 393 renal)
73.2 µM: TGI (DU-145 prostate)
57.2 µM: TGI (MDA-MB-435) | TGI (NCI/ADR-RES ovarian)
40.1 µM: TGI (SN12C renal)
54.9 µM: TGI (SW-620 colon)
55.2 µM: TGI (MCF7 breast)
> 100 µM: TGI (A549 NSCLC) | TGI (HT29 colon) | TGI (HS 578T breast) | TGI (MALME-3M melanoma) | TGI (OVCAR-8 ovarian) | TGI (SK-OV-3 ovarian) | TGI (SK-MEL-5 melanoma) | TGI (COLO 205 colon) | TGI (SNB-19 CNS) | TGI (OVCAR-4 ovarian) | TGI (KM12 colon) | TGI (OVCAR-5 ovarian) | TGI (A498 renal) | TGI (PC-3 prostate) | TGI (SK-MEL-2 melanoma) | TGI (IGROV1 ovarian) | TGI (SF-295 CNS) | TGI (UACC-257 melanoma) | TGI (786-0 renal) | TGI (SF-268 CNS) | TGI (CAKI-1 renal) | TGI (SK-MEL-28 melanoma) | TGI (EKVX NSCLC) | TGI (SNB-75 CNS)
39 µM: TGI (TK-10 renal)
80.3 µM: TGI (BT-549 breast)
40 µM: TGI (HCT-116 colon)
56.5 µM: TGI (ACHN renal)
56.7 µM: TGI (HOP-62 NSCLC) | TGI (NCI-H23 lung)
84 µM: TGI (MDA-MB-231 breast)
94.3 µM: TGI (T-47D breast)
75.1 µM: TGI (M14 melanoma)
39.8 µM: TGI (UACC-62 melanoma)
59.5 µM: TGI (UO-31 renal)
44.9 µM: TGI (SF-539 CNS)
46.8 µM: TGI (NCI-H522 lung)
88.6 µM: TGI (NCI-H226 lung)
66.5 µM: TGI (HCT-15 colon)
48.7 µM: TGI (U251 CNS)
31.2 µM: TGI (LOX IMVI melanoma)

CC(C)CC(NC(=O)OC(C)(C)C)C(=O)NC(CCC(=O)OC1CCCCC1)C(N)=O (stereo not drawn) (Boc-Leu-Glu(OcHex)-NH2; configuration not given here)
inactive: GI50 (MOLT-4 leukemia) 62.9 µg/mL | GI50 (MALME-3M melanoma) 42.9 µg/mL | GI50 (SK-OV-3 ovarian) 92.7 µg/mL | GI50 (NCI-H522 lung) 12.2 µg/mL | GI50 (BT-549 breast) 63.5 µg/mL | GI50 (K-562 leukemia) 51.9 µg/mL | GI50 (UACC-62 melanoma) 94.8 µg/mL | GI50 (UACC-257 melanoma) 51.2 µg/mL (≈ 116 µM) | GI50 (UO-31 renal) 94.8 µg/mL | GI50 (SK-MEL-28 melanoma) 44.8 µg/mL | GI50 (M14 melanoma) 78.8 µg/mL | GI50 (SNB-75 CNS) 71.5 µg/mL | GI50 (HOP-92 NSCLC) 12.5 µg/mL (≈ 28.4 µM)
36.7 µg/mL: TGI (HOP-92 NSCLC)
45.9 µg/mL: TGI (NCI-H522 lung)

NS(=O)(=O)c1nnc(NC(=S)NC(=O)Nc2ccc(Cl)c(Cl)c2)s1
80.1 µM: TGI (EKVX NSCLC)
55.2 µM: TGI (OVCAR-4 ovarian)
> 100 µM: TGI (A549 NSCLC) | TGI (MOLT-4 leukemia) | TGI (TK-10 renal) | TGI (CCRF-CEM leukemia) | TGI (PC-3 prostate) | TGI (K-562 leukemia) | TGI (MCF7 breast) | TGI (RPMI-8226 leukemia) | TGI (786-0 renal) | TGI (U251 CNS) | TGI (SF-268 CNS) | TGI (MDA-MB-231 breast) | TGI (SK-MEL-28 melanoma) | TGI (NCI-H226 lung)
63.6 µM: TGI (CAKI-1 renal)
48.9 µM: TGI (HCT-15 colon)
59 µM: TGI (MALME-3M melanoma)
39.1 µM: TGI (COLO 205 colon)
65.5 µM: TGI (SW-620 colon)
53.9 µM: TGI (DU-145 prostate)
41.9 µM: TGI (MDA-MB-435)
67.7 µM: TGI (OVCAR-5 ovarian)
68.2 µM: TGI (SN12C renal)
62.6 µM: TGI (NCI/ADR-RES ovarian)
49 µM: TGI (SK-MEL-5 melanoma)
50 µM: TGI (SNB-75 CNS)
94.8 µM: TGI (SNB-19 CNS)
62 µM: TGI (OVCAR-3 ovarian)
67.2 µM: TGI (HS 578T breast)
34 µM: TGI (LOX IMVI melanoma)
39.9 µM: TGI (KM12 colon)
33.1 µM: TGI (UACC-62 melanoma)
88 µM: TGI (SK-MEL-2 melanoma)
69.7 µM: TGI (OVCAR-8 ovarian)
40.4 µM: TGI (NCI-H23 lung)
36.2 µM: TGI (HOP-92 NSCLC)
42.3 µM: TGI (RXF 393 renal)
44.3 µM: TGI (HCT-116 colon)
65.1 µM: TGI (UACC-257 melanoma)
46.7 µM: TGI (IGROV1 ovarian)
71.9 µM: TGI (HT29 colon)
36.1 µM: TGI (M14 melanoma)
62.1 µM: TGI (SK-OV-3 ovarian) | TGI (SF-295 CNS)
50.2 µM: TGI (BT-549 breast)
63.7 µM: TGI (HOP-62 NSCLC)
21.8 µM: TGI (SF-539 CNS)
48 µM: TGI (UO-31 renal)
31 µM: TGI (NCI-H522 lung)
87.6 µM: TGI (HL-60(TB) leukemia)
